# Data from patent US8609609B2, “Peptides and methods of use as therapeutics and screening agents” (North Carolina State University, priority 2008, dated 2013).
# No end group written: not given here.
# Tests used:
# Feline (FEA) cells = experiment: Shear-loading of feline (FEA) cells with fluorescein-conjugated peptide: fluorescence microscopy and toxicity staining; type: cell-based; conditions: after 1, 2 and 3 days, at the concentrations used for loading
# From the text: Feline (FEA) cells are “shear-loaded” with the peptide #6 that binds the modified ASLLys3. Fluorescein-conjugated, peptide #6 is located with fluorescence microscopy First row: Sham loaded cells. Second row: Peptide loaded. Third row: Peptide loaded at 40× magnification.
# [1] = tested on: equine infectious anemia virus (EIAV); experiment: Reverse transcriptase activity in EIAV infected feline (FEA) cells shear-loaded with peptide; type: cell-based
# Method: (§1) EIAV is a lentivirus as is HIV, and as such utilizes the host cell tRNA^LYS3 for priming reverse transcription. EIAV infected feline (FEA) cells are “shear-loaded” with three concentrations (5, 10, 35) of peptide #6 that binds the modified ASL^LYS3 portion of HIV primer. Cells are sham loaded with phosphate buffered saline (PBS). The effect of the peptide on reverse transcriptase activity and on toxicity are determined after 1, 2 and 3 days.
# [2] = tested on: EIAV infected feline (FEA) cells; experiment: Toxicity by staining in EIAV infected feline (FEA) cells shear-loaded with peptide; type: cell-based
# Method: as §1
# [3] = tested on: fully modified human tRNA^LYS3 anticodon stem and loop domain (modified ASL^LYS3); experiment: Fluorescence titration of fluorescein-conjugated peptides with modified ASL^LYS3; type: binding; conditions: for specific recognition of the modifications of the ASLLys3: comparison of titration with modified and with unmodified ASL^LYS3; for binding to the modified ASL^LYS3 (fluorescence monitored): fluorescein-conjugated peptide titrated with modified ASL^LYS3
# From the text: (§2) The sequences of the target ASLLys3 and that of control ASLs are shown. Peptides were selected against the ASLLys3 and tested against all three. The ASL^LYS3 contains the natural modified nucleosides, 5-methoxycarbonylmethyl-2-thiouridine-34 (mcm5s2U34), 2-methylthio-N6-threonylcarbamoyladenosine-37 (ms2t6A37), and pseudouridine-39 (Ψ39).
# (§3) Peptides were selected by phage display methods to bind to the modified ASL^LYS3. Control peptides were selected for their lack of recognition. Each peptide is synthesized with a conjugated fluorescein as a reporter. Here control peptide #21 is titrated with the three ASLs and the fluorescence is monitored.
# (§4) Peptides #6 and #17 were selected by phage display methods to bind to the modified ASL^LYS3. These peptides along with control peptide #21 were synthesized with a conjugated fluorescein as a reporter. Here the three peptides are titrated with the modified ASLLys3 and the fluorescence is monitored.
# unmodified ASL^LYS3 = experiment: Fluorescence titration of fluorescein-conjugated peptides with unmodified ASL^LYS3; type: binding; conditions: fluorescein-conjugated peptide titrated with unmodified ASL^LYS3
# From the text: as §2, §3
# as §4, with “unmodified ASL^LYS3” for “modified ASLLys3”
Sequence,"toxicity, determined by staining (Feline (FEA) cells)","reverse transcriptase activity ([1]; EIAV infected FEA cells loaded with fluorescein-conjugated peptide, three concentrations (5, 10, 35), versus PBS sham loaded)","bioactivity in cells against reverse transcription ([1]; EIAV infected FEA cells, at days 2 and 3)",toxicity (staining of the cells) ([2]; high concentration),toxicity (staining of the cells) ([2]; low and middle concentrations),specific recognition of the modifications of the ASLLys3 [3],binding to the modified ASL^LYS3 (fluorescence monitored) [3],binding to the unmodified ASL^LYS3 (fluorescence monitored) (unmodified ASL^LYS3)
"PAVASTSSLIIDGPF (also: fluorescein label, position not given here) [peptide #6]",not toxic,significantly reduced,significant bioactivity,only slightly toxic,not toxic,specifically recognizing the modifications,bind,do not exhibit binding
"NGPECNAYMVRCRGYH (cysteine pairing not given here; also: fluorescein label, position not given here) [compound 17]",,,,,,,bind,do not exhibit binding
PKAFQYGGRAVGGLW (hASL LYS3 binding peptide) [compound 7],,,,,,specifically recognizing the modifications,,
